Reference: patent US20250163104A1, “MACROCYCLIC IMMUNOMODULATORS” (priority 2021, published 2025)
Where a SMILES comes first, the peptide text is derived from it. Bridges are numbered along the chain shown (N, C = ends). [ ]: non-standard residue; d: D form. The star is where a group is joined. Phe(4-COOH) = N[C@@H](Cc1ccc(C(=O)O)cc1)C(=O)O; Bip = N[C@@H](Cc1ccc(-c2ccccc2)cc1)C(=O)O; Phe(3-Me) = Cc1cccc(C[C@H](N)C(=O)O)c1; 4Pal = N[C@@H](Cc1ccncc1)C(=O)O; Cha = N[C@@H](CC1CCCCC1)C(=O)O; Carboxymethyl = O=C(O)C*; Orn = NCCC[C@H](N)C(=O)O; Dab = NCC[C@H](N)C(=O)O; Dap = NC[C@H](N)C(=O)O

target: T1, human PD-1 / PD-L1-Ig binding on Jurkat cell line over-expressing human PD-1 (Jurkat-PD-1) (Homo sapiens, UniProt Q15116); assay: Jurkat-PD-1 Cell Binding High-Content Screening Assay (CBA); type: cell-based; conditions: Jurkat-PD-1 cells, PE-labeled PD-L1-Ig 20 nM final; read-out: Jurkat HPD1_PDL1 IC50
T1 construct: expressed in transfected cells; host or cells: Jurkat
T1 sequence (Q15116 25-288): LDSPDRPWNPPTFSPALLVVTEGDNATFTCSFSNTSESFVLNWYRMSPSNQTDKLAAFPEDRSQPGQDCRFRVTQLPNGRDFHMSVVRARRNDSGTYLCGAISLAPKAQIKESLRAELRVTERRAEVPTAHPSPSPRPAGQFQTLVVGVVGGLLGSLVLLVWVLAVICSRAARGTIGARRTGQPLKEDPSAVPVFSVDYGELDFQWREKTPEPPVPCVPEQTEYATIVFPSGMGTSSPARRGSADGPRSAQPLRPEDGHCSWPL
Procedure, shortened: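 Jurkat-hPD-1 cells in DMEM with 10% fetal calf serum receive test compound and are held at 37° C for 2 h. PE-labeled PD-L1-Ig is added at 20 nM final and left for 1 hour. Cells are then fixed and Hoechst-stained, and binding is measured by imaging.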

IC50 [nM]	Structure (SMILES)
13.8	Cc1cccc(C[C@@H]2NC(=O)[C@H](CC(=O)O)NC(=O)[C@H](Cc3ccc(C(=O)O)cc3)NC(=O)[C@H](Cc3ccc(OCC(=O)O)cc3)NC(=O)CSC[C@@H](C(=O)N[C@@H](C)C(N)=O)NC(=O)[C@H]([C@@H](C)O)NC(=O)[C@H](C(C)C)NC(=O)[C@H](CC3CCCCC3)NC(=O)[C@H](CCN)NC(=O)[C@@H](CC(C)C)NC(=O)[C@H](CCCN)NC(=O)[C@H](CCN)NC(=O)[C@H](Cc3ccc(-c4ccccc4)cc3)NC(=O)[C@H](C(C)C)NC2=O)c1 [Compound 1415]
8.5	Cc1cccc(C[C@@H]2NC(=O)[C@H](CC(=O)O)NC(=O)[C@H](Cc3ccc(C(=O)O)cc3)NC(=O)[C@H](Cc3ccc(OCC(=O)O)cc3)NC(=O)CSC[C@@H](C(=O)N[C@@H](C)C(N)=O)NC(=O)[C@H]([C@@H](C)O)NC(=O)[C@H](C(C)C)NC(=O)[C@H](CC3CCCCC3)NC(=O)[C@H](CCN)NC(=O)[C@@H](CC(C)C)NC(=O)[C@H](CCCN)NC(=O)[C@H](CN)NC(=O)[C@H](Cc3ccc(-c4ccccc4)cc3)NC(=O)[C@H](C(C)C)NC2=O)c1 [Compound 1416]
7	Cc1cccc(C[C@@H]2NC(=O)[C@H](CC(=O)O)NC(=O)[C@H](Cc3ccc(C(=O)O)cc3)NC(=O)[C@H](Cc3ccncc3)NC(=O)CSC[C@@H](C(=O)N[C@@H](C)C(N)=O)NC(=O)[C@H]([C@@H](C)O)NC(=O)[C@H](C(C)C)NC(=O)[C@H](CC3CCCCC3)NC(=O)[C@H](CCN)NC(=O)[C@@H](CC(C)C)NC(=O)[C@H](CCCN)NC(=O)[C@H](CCC(=O)O)NC(=O)[C@H](Cc3ccc(-c4ccccc4)cc3)NC(=O)[C@H](C(C)C)NC2=O)c1 [Compound 1417]
8.1	Cc1cccc(C[C@@H]2NC(=O)[C@H](CC(=O)O)NC(=O)[C@H](Cc3ccncc3)NC(=O)[C@H](CN)NC(=O)CSC[C@@H](C(=O)N[C@@H](C)C(N)=O)NC(=O)[C@H]([C@@H](C)O)NC(=O)[C@H](C(C)C)NC(=O)[C@H](CC3CCCCC3)NC(=O)[C@H](CCN)NC(=O)[C@@H](CC(C)C)NC(=O)[C@H](CCCN)NC(=O)[C@H](CCC(=O)O)NC(=O)[C@H](Cc3ccc(-c4ccccc4)cc3)NC(=O)[C@H](C(C)C)NC2=O)c1 [Compound 1418] ({CH2CO}-[Dap][4Pal]D[Phe(3-Me)]V[Bip]E[Orn][dL][Dab][Cha]VTCA-NH2; thioether N-14)
7.2	Cc1cccc(C[C@@H]2NC(=O)[C@H](CC(=O)O)NC(=O)[C@H](Cc3ccncc3)NC(=O)[C@H](Cc3ccc(OCC(=O)O)cc3)NC(=O)CSC[C@@H](C(=O)N[C@@H](C)C(N)=O)NC(=O)[C@H]([C@@H](C)O)NC(=O)[C@H](C(C)C)NC(=O)[C@H](CC3CCCCC3)NC(=O)[C@H](CCN)NC(=O)[C@@H](CC(C)C)NC(=O)[C@H](CCCN)NC(=O)[C@H](CCC(=O)O)NC(=O)[C@H](Cc3ccc(-c4ccccc4)cc3)NC(=O)[C@H](C(C)C)NC2=O)c1 [Compound 1419] ({CH2CO}-Y(Carboxymethyl)[4Pal]D[Phe(3-Me)]V[Bip]E[Orn][dL][Dab][Cha]VTCA-NH2; thioether N-14)
7.5	Cc1cccc(C[C@@H]2NC(=O)[C@H](CC(=O)O)NC(=O)[C@H](Cc3ccc(O)cc3)NC(=O)[C@H](CC(N)=O)NC(=O)CSC[C@@H](C(=O)N[C@@H](C)C(N)=O)NC(=O)[C@H]([C@@H](C)O)NC(=O)[C@H](C(C)C)NC(=O)[C@H](CC3CCCCC3)NC(=O)[C@H](CCN)NC(=O)[C@@H](CC(C)C)NC(=O)[C@H](CCCN)NC(=O)[C@H](CCC(=O)O)NC(=O)[C@H](Cc3ccc(-c4ccccc4)cc3)NC(=O)[C@H](C(C)C)NC2=O)c1 [Compound 1420] ({CH2CO}-NYD[Phe(3-Me)]V[Bip]E[Orn][dL][Dab][Cha]VTCA-NH2; thioether N-14)
9.9	CC(C)C[C@H]1NC(=O)[C@H](CCCN)NC(=O)[C@H](CCC(=O)O)NC(=O)[C@H](Cc2ccc(-c3ccccc3)cc2)NC(=O)[C@H](C(C)C)NC(=O)[C@H](Cc2c[nH]c3ccccc23)NC(=O)[C@H](CC(=O)O)NC(=O)[C@H](Cc2ccncc2)NC(=O)[C@H](Cc2ccc(OCC(=O)O)cc2)NC(=O)CSC[C@@H](C(=O)N[C@@H](C)C(N)=O)NC(=O)[C@H]([C@@H](C)O)NC(=O)[C@H](C(C)C)NC(=O)[C@H](CC2CCCCC2)NC(=O)[C@H](CCN)NC1=O [Compound 1423]
14.7	CC(C)C[C@H]1NC(=O)[C@H](CCCN)NC(=O)[C@H](CCC(=O)O)NC(=O)[C@H](Cc2ccc(-c3ccccc3)cc2)NC(=O)[C@H](C(C)C)NC(=O)[C@H](Cc2c[nH]c3ccccc23)NC(=O)[C@H](CC(=O)O)NC(=O)[C@H](Cc2ccc(O)cc2)NC(=O)[C@H](CC(N)=O)NC(=O)CSC[C@@H](C(=O)N[C@@H](C)C(N)=O)NC(=O)[C@H]([C@@H](C)O)NC(=O)[C@H](C(C)C)NC(=O)[C@H](CC2CCCCC2)NC(=O)[C@H](CCN)NC1=O [Compound 1424] ({CH2CO}-NYDWV[Bip]E[Orn][dL][Dab][Cha]VTCA-NH2; thioether N-14)
16.8	CC(C)C[C@H]1NC(=O)[C@H](CCCN)NC(=O)[C@H](CCC(=O)O)NC(=O)[C@H](Cc2ccc(-c3ccccc3)cc2)NC(=O)[C@H](C(C)C)NC(=O)[C@H](Cc2c[nH]c3ccccc23)NC(=O)[C@H](CC(=O)O)NC(=O)[C@H](Cc2ccc(OCC(=O)O)cc2)NC(=O)[C@H](CN)NC(=O)CSC[C@@H](C(=O)N[C@@H](C)C(N)=O)NC(=O)[C@H]([C@@H](C)O)NC(=O)[C@H](C(C)C)NC(=O)[C@H](CC2CCCCC2)NC(=O)[C@H](CCN)NC1=O [Compound 1425]
23.3	Cc1cccc(C[C@@H]2NC(=O)[C@H](CC(=O)O)NC(=O)[C@H](Cc3ccc(C(=O)O)cc3)NC(=O)[C@H](Cc3ccc(OCC(=O)O)cc3)NC(=O)CSC[C@@H](C(=O)N[C@@H](C)C(N)=O)NC(=O)[C@H]([C@@H](C)O)NC(=O)[C@H](C(C)C)NC(=O)[C@H](CC3CCCCC3)NC(=O)[C@H](CCN)NC(=O)[C@@H](CC(C)C)NC(=O)[C@H](CCCN)NC(=O)[C@H](CCC(=O)O)NC(=O)[C@H](Cc3ccc(-c4ccccc4)cc3)NC(=O)[C@H](C(C)C)NC2=O)c1 [Compound 1426]
9.7	CC(C)C[C@H]1NC(=O)[C@H](CCCN)NC(=O)[C@H](CCC(=O)O)NC(=O)[C@H](Cc2ccc(-c3ccccc3)cc2)NC(=O)[C@H](C(C)C)NC(=O)[C@H](Cc2c[nH]c3ccccc23)NC(=O)[C@H](CC(=O)O)NC(=O)[C@H](Cc2ccc(C(=O)O)cc2)NC(=O)[C@H](Cc2ccc(OCC(=O)O)cc2)NC(=O)CSC[C@@H](C(=O)N[C@@H](C)C(N)=O)NC(=O)[C@H]([C@@H](C)O)NC(=O)[C@H](C(C)C)NC(=O)[C@H](CC2CCCCC2)NC(=O)[C@H](CCN)NC1=O [Compound 1427]
18.4	Cc1cccc(C[C@@H]2NC(=O)[C@H](CC(=O)O)NC(=O)[C@H](Cc3ccc(C(=O)O)cc3)NC(=O)[C@H](Cc3ccncc3)NC(=O)CSC[C@@H](C(=O)N[C@@H](C)C(N)=O)NC(=O)[C@H]([C@@H](C)O)NC(=O)[C@H](C(C)C)NC(=O)[C@H](CC3CCCCC3)NC(=O)[C@H](CCN)NC(=O)[C@@H](Cc3ccccc3)NC(=O)[C@H](CCCN)NC(=O)[C@H](CCC(=O)O)NC(=O)[C@H](Cc3ccc(-c4ccccc4)cc3)NC(=O)[C@H](C(C)C)NC2=O)c1 [Compound 1428] ({CH2CO}-[4Pal][Phe(4-COOH)]D[Phe(3-Me)]V[Bip]E[Orn][dF][Dab][Cha]VTCA-NH2; thioether N-14)
